Source: patent publication EP4729516A1, “S[…] DERIVATIVE, INTERMEDIATE, PREPARATION METHOD THEREFOR AND USE THEREOF” (Jiangsu NHWA Pharmaceutical Co., Ltd, priority 2023, dated 2024)

Columns and labels:
Male SD rats [1] = test: Hypnotic efficacy: loss of righting reflex (LORR) in rats; assay type: in vivo
Experimental: The sequential method was used to determine the ED50 (median effective dose) for the loss of righting reflex (LORR) by the compounds of the present disclosure in rats: Male SD rats, weighing 200-300 grams, were used. Each compound was dissolved in normal saline and administered via tail vein injection at an initial dose at a constant injection rate over 10 s (one rat per dose). […] This process was repeated, and the results were recorded in the AOT425 Statpm software until the software could calculate the ED50, at which point the experiment was terminated. The hypnotic efficacy of the compounds of the present disclosure was evaluated using ED50 with lower ED50 values indicating stronger efficacy.
Comparison of onset time and duration: Male SD rats, weighing 200-300 grams, were used. Each compound was dissolved in normal saline and administered via tail vein injection at a constant injection rate over 10 s, with 10 rats per group. […] The onset time and duration were recorded.
The onset time refers to the period from the completion of injection to when the rat is placed in a supine position, with the criterion for loss of righting reflex defined as the rat's inability to spontaneously revert to a prone position using its forelimbs and maintained for ≥10 s, which serves as an indicator of compound efficacy; the duration refers to the sustained period during which the rat remains in a state of losing righting reflex. The spontaneous recovery of the righting reflex in the rat is considered the cessation of the efficacy.

Male SD rats [2] = test: Fluctuations in blood pressure and heart rate after administration; assay type: in vivo
Experimental: Male SD rats, weighing 250-300 g, with 4 rats per group, were maintained under general anesthesia by isoflurane inhalation. Femoral artery cannulation was performed, and blood pressure and heart rate were monitored using a Powerlab data acquisition and analysis system. 30 min after the baseline values stabilized, the baseline mean arterial pressure (MAP0) and baseline heart rate (HR0) were measured. The rats were given a solution of each compound in normal saline via tail vein injection (the dose of each compound was the same as in Test Example 3, with rapid intravenous injection over 10 s). Blood pressure and heart rate were continuously recorded for 90 min. MAP^+ (the difference between the maximum mean arterial pressure (MAPmax) and MAP0), MAP^-(the difference between the minimum mean arterial pressure (MAPmin) and MAP0), and HR^- (the difference between the minimum heart rate (HRmin) and HR0) within 90 min were calculated. For calculation, the maximum increase rate of mean arterial pressure = MAP^+/MAP0 × 100%; the maximum decrease rate of mean arterial pressure = MAP^-/MAP0 × 100%; and the maximum decrease rate of heart rate = HR^-/HR0 × 100%.

[3] = in words, compared with dexmedetomidine hydrochloride, rats
[4] = loss of righting reflex, male SD rats, tail vein injection, dose twice the ED50, 10 rats per group
[5] = isoflurane-anesthetized male SD rats, tail vein injection, dose as in Test Example 3
[6] = isoflurane-anesthetized male SD rats, tail vein injection, dose as in Test Example 3, within 90 min

## CC(c1c[nH]cn1)c1cccc2c1COC2 (stereo not drawn) [Compound 5, 4-[1-(1,3-Dihydroisobenzofuran-4-yl)ethyl]-1H-imidazole]
Male SD rats [1]; Rattus norvegicus, loss of righting reflex, male SD rats, tail vein injection over 10 s, sequential method
  ED50: 0.0625 mg/kg
Male SD rats [1]; [3]
  Duration: significantly shorter
  hypnotic onset time: comparable to or slightly longer
Male SD rats [1]; [4]
  Duration: 531.10±559.16 S
  Onset time: 99.20±29.98 S
Male SD rats [1]; time to induce sleep, rats, dose twice the ED50
  induce sleep in rats: ≤ 5 min
Male SD rats [2]; [3]
  maximum decrease rates of HR: lower
  maximum increase rates of MAP: lower
  recovery of HR: faster
Male SD rats [2]; [5]
  HR decrease Duration: 30 min
  MAP increase Duration: 2 min
Male SD rats [2]; [6]
  HR decrease Maximum decrease rate: 24.7±4.5 %
  MAP decrease Maximum decrease rate: 7.4±9.2%
  MAP increase Maximum increase rate: 19.9±6.3%
Male SD rats [2]; no significant decreases greater than the stated value, rats
  decreases in MAP: ≤ 10%
